Publication PMC12809313, “New Sulfonate-Semicarbazone Hybrid Molecules: Synthesis, Theoretical Evaluations, Molecular Simulations, and Butyrylcholinesterase Inhibition Activity” (ACS Omega, 2025)
Several values for one entry are separate records, joined by “and”; a condition that tells them apart may be missing. Equal values may be shown once.

Assays:
[1] = target: T1, butyrylcholinesterase (BChE) (Homo sapiens, UniProt P06276); experiment: In vitro BChE inhibition (Ellman's technique); assay type: biochemical; settings: Ellman assay, five concentrations, triplicate
Protocol: The semicarbazone derivatives were evaluated for their inhibitory activities against human acetylcholinesterase (AChE) and butyrylcholinesterase (BChE) enzymes using standard in vitro assays. The Ellman’s technique that was tailored to our lab’s needs was used to measure the activity of the cholinesterase enzyme. The test chemicals were first dissolved in DMSO at a concentration of 1 mg/mL to create stock solutions, which were then diluted 10 times with distilled water for use in the inhibition tests. Each compound’s inhibitory effects on the enzymes were evaluated at five different concentrations. Fifty microliters of distilled water, 50 μL of 0.1 M Tris–HCl buffer (pH 8.0), 15 μL of 0.015 M […] (as substrates), 30 μL of 0.06 M DTNB (5,5′-dithiobis(2-nitrobenzoic acid)), and 10 μL of enzyme solution made up the reaction mixture for the AChE and BChE tests. The absorbance of the blank solutions was measured before the substrate was added. The substrate was then added to each well to start the enzymatic reaction. Enzyme activity was kinetically assessed at 408 nm by using a microplate reader. Each inhibition measurement was repeated three times, and average values were taken when measuring the inhibitory potentials of the molecules. The IC50 values, indicating each compound’s inhibitory strength against cholinesterase, were determined by plotting percent activity versus inhibitor concentration.

[2] = target: T1, butyrylcholinesterase (BChE); experiment: BChE enzyme kinetics (Lineweaver–Burk plots); assay type: biochemical; settings: for inhibition type: Lineweaver–Burk plots; for Ki: substrate butyrylthiocholine iodide, Lineweaver–Burk, read-out: inhibition constant (K i)
Protocol: The enzymatic activity of BChE was evaluated at various concentrations of the substrate butyrylthiocholine iodide (BTChI) in the presence of fixed concentrations of each inhibitor. The resulting data were analyzed by Lineweaver–Burk double reciprocal plots to determine kinetic parameters such as K m, V max, and the inhibition type (Figure ).
Different concentrations of butyrylthiocholine iodide were used in the presence of three concentrations of each compound. Lineweaver–Burk plots were constructed by plotting the reciprocal of reaction velocity (1/V) against the reciprocal of substrate concentration (1/[S]). Based on these plots, the inhibition types were determined. The inhibition constant (K i) was calculated using the following equation (eq ). 2 slope=Km/Vmax×(1+[I]/Ki)

T1 sequence (P06276 29-602): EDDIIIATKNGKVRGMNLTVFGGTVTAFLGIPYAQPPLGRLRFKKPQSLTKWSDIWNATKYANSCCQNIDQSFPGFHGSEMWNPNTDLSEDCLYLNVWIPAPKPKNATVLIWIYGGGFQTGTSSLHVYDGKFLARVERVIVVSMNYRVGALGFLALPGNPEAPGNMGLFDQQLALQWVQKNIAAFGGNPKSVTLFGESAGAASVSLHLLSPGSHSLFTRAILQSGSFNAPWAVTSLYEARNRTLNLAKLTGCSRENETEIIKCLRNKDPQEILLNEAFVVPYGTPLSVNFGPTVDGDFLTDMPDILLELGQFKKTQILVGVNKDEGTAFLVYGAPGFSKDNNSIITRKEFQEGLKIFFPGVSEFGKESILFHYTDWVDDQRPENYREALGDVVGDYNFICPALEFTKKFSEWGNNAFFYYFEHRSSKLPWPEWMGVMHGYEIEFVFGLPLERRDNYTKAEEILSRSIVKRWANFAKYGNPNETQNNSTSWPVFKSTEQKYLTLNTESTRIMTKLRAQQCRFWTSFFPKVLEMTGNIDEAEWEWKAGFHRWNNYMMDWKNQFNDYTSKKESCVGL

Structure (SMILES) | BChE IC50 [1] | IC50 [1] | inhibition type [2] | Ki [2]
NC(=O)N/N=C/c1ccc(OS(=O)(=O)c2ccc(-c3ccccc3)cc2)cc1 [Compound 16, 4-[(E)-(2-Carbamoylhydrazinylidene)methyl]phenyl [1,1′-Biphenyl]-4-sulfonate] | stronger inhibition than the reference drug pyridostigmine bromide | < 130 µM and 112 µM | – | –
NC(=O)N/N=C/c1ccc(OS(=O)(=O)c2ccc(OC(F)(F)F)cc2)cc1 [Compound 14, 4-[(E)-(2-Carbamoylhydrazinylidene)methyl]phenyl 4-(Trifluoromethoxy)benzene-1-sulfonate] | stronger inhibition than the reference drug pyridostigmine bromide | < 130 µM and 130 µM | – | –
COc1ccc(S(=O)(=O)Oc2ccc(/C=N/NC(N)=O)cc2)cc1 [Compound 7, 4-[(E)-(2-Carbamoylhydrazinylidene)methyl]phenyl 4-Methoxybenzene-1-sulfonate] | – | 136 µM | – | –
NC(=O)N/N=C/c1ccc(OS(=O)(=O)c2cccc3ccccc23)cc1 [Compound 17, 4-[(E)-(2-Carbamoylhydrazinylidene)methyl]phenyl Naphthalene-1-sulfonate] | stronger inhibition than the reference drug pyridostigmine bromide | 77 µM and < 130 µM | reversible competitive inhibitors | 9.08 ± 3.51 µM
NC(=O)N/N=C/c1ccc(OS(=O)(=O)c2ccc(Cl)cc2)cc1 [Compound 3, 4-[(E)-(2-carbamoylhydrazinylidene)methyl]phenyl 4-Chlorobenzene-1-sulfonate] | – | 141 µM | – | –
NC(=O)N/N=C/c1ccc(OS(=O)(=O)c2cccc(OC(F)(F)F)c2)cc1 [Compound 13, 4-[(E)-(2-Carbamoylhydrazinylidene)methyl]phenyl 3-(Trifluoromethoxy)benzene-1-sulfonate] | stronger inhibition than the reference drug pyridostigmine bromide | < 130 µM and 116 µM | – | –
NC(=O)N/N=C/c1ccc(OS(=O)(=O)c2ccccc2OC(F)(F)F)cc1 [Compound 12, 4-[(E)-(2-Carbamoylhydrazinylidene)methyl]phenyl 2-(Trifluoromethoxy)benzene-1-sulfonate] | stronger inhibition than the reference drug pyridostigmine bromide | 61.9 µM and < 130 µM | reversible competitive inhibitors | 11.9 ± 3.31 µM
NC(=O)N/N=C/c1ccc(OS(=O)(=O)c2ccccc2C(F)(F)F)cc1 [Compound 8, 4-[(E)-(2-Carbamoylhydrazinylidene)methyl]phenyl 2-(Trifluoromethyl)benzene-1-sulfonate] | – | 172 µM | – | –
NC(=O)N/N=C/c1ccc(OS(=O)(=O)c2ccc([N+](=O)[O-])cc2)cc1 [Compound 15, 4-[(E)-(2-Carbamoylhydrazinylidene)methyl]phenyl 4-Nitrobenzene-1-sulfonate] | – | 347 µM | – | –
Cc1ccc(S(=O)(=O)Oc2ccc(/C=N/NC(N)=O)cc2)cc1 [Compound 6, 4-[(E)-(2-Carbamoylhydrazinylidene)methyl]phenyl 4-Methylbenzene-1-sulfonate] | – | 178 µM | – | –
NC(=O)N/N=C/c1ccc(OS(=O)(=O)c2ccc(I)cc2)cc1 [Compound 5, 4-[(E)-(2-Carbamoylhydrazinylidene)methyl]phenyl 4-Iodobenzene-1-sulfonate] | – | 173 µM | – | –
NC(=O)N/N=C/c1ccc(OS(=O)(=O)c2ccccc2)cc1 [Compound 1, 4-[(E)-(2-Carbamoylhydrazinylidene)methyl]phenyl Benzenesulfonate] | – | 139 µM | – | –
NC(=O)N/N=C/c1ccc(OS(=O)(=O)c2cc(C(F)(F)F)cc(C(F)(F)F)c2)cc1 [Compound 11, 4-[(E)-(2-Carbamoylhydrazinylidene)methyl]phenyl 3,5-Bis(trifluoromethyl)benzene-1-sulfonate] | stronger inhibition than the reference drug pyridostigmine bromide | < 130 µM and 114 µM | – | –
NC(=O)N/N=C/c1ccc(OS(=O)(=O)c2ccc3ccccc3c2)cc1 [Compound 18, 4-[(E)-(2-Carbamoylhydrazinylidene)methyl]phenyl Naphthalene-2-sulfonate] | stronger inhibition than the reference drug pyridostigmine bromide | 93.7 µM and < 130 µM | reversible competitive inhibitors | 5.49 ± 0.33 µM
NC(=O)N/N=C/c1ccc(OS(=O)(=O)c2ccc(C(F)(F)F)cc2)cc1 [Compound 10, 4-[(E)-(2-Carbamoylhydrazinylidene)methyl]phenyl-4-(trifluoromethyl)benzene-1-sulfonate] | – | 139 µM | – | –
NC(=O)N/N=C/c1ccc(OS(=O)(=O)c2cccc(C(F)(F)F)c2)cc1 [Compound 9, 4-[(E)-(2-Carbamoylhydrazinylidene)methyl]phenyl-3-(trifluoromethyl)benzene-1-sulfonate] | – | 147 µM | – | –
NC(=O)N/N=C/c1ccc(OS(=O)(=O)c2ccc(Br)cc2)cc1 [Compound 4, 4-[(E)-(2-Carbamoylhydrazinylidene)methyl]phenyl 4-Bromobenzene-1-sulfonate] | – | 177 µM | – | –
NC(=O)N/N=C/c1ccc(OS(=O)(=O)c2ccc(F)cc2)cc1 [Compound 2, 4-[(E)-(2-Carbamoylhydrazinylidene)methyl]phenyl 4-Fluorobenzene-1-sulfonate] | – | 161 µM | – | –
